# From patent US20260373266A1, “PROTEIN DEGRADERS AND USES THEREOF” (KYMERA THERAPEUTICS, INC., priority 2022, published 2026)
# Like-named read-outs stand apart in the source and are kept apart here.
# Molecular target: T1, DCAF1 WD40 domain (residues 1077-1390) (Homo sapiens, UniProt Q9Y4B6)
# T1 construct: DCAF1 WD40 domain (residues 1077-1390)
# Assay: DCAF1 binding assay by SPR (Biacore 8K+), DCAF1-3 KD
# Settings: 25 °C
# T1 sequence (Q9Y4B6 1077-1390): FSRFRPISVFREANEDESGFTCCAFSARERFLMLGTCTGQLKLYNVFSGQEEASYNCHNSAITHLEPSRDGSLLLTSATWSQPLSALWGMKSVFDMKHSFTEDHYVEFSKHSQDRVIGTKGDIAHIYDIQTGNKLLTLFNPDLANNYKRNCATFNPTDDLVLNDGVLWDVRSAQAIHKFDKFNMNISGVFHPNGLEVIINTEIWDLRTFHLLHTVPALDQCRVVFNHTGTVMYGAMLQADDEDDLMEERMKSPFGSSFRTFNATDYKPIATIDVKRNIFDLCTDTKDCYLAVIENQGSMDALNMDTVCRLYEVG
Kd (read-out: DCAF1-3 SPR (KD)) [µM],Kd (DCAF1-3 SPR (KD)) [µM],Compound
> 200,–,Fc1cccc(N2C[C@H](Nc3cc(N4CCOCC4)ncn3)C3CCC[C@H]2C3)c1 (stereo in doubt) [I-384]
10 to 100,–,OC[C@@H]1C[C@H](Nc2cc(N3CCCCC3)ccn2)CN(c2cccc(F)c2)C1 [I-1011]
> 200,–,C=CC(=O)N1CCC(N(C)c2ccnc(N[C@@H]3CCCN(c4cccc(F)c4)C3)c2)C1 (stereo partly shown) [I-458]
< 10,–,COCCOCCc1[nH]cc(C(=O)N[C@@H](CC(N)=O)c2cccc(Cl)c2)c1-c1ccccc1F [I-557]
< 10,–,Cc1ccccc1C(=O)c1[nH]cc(C(=O)N[C@@H](CC(N)=O)c2cccc(Cl)c2)c1-c1c(C)cccc1F [I-626]
> 200,–,C=CC(=O)Nc1ccc2c(C(=O)N[C@@H](CC(N)=O)c3cccc(Cl)c3)n[nH]c2c1 [I-301]
10 to 100,–,FC(F)(F)Oc1ccc(N2CCC[C@@H](Nc3cc(N4CCOCC4)ccn3)C2)nc1 [I-426]
< 10,–,Cc1cccc(F)c1-c1c(C(=O)N[C@@H](CC(N)=O)c2cccc(Cl)c2)c[nH]c1C(=O)c1ccccn1 [I-699]
> 200,–,CS(=O)(=O)CCc1ccc(F)c(-c2[nH]ncc2C(=O)N[C@H](CC(N)=O)c2cccc(Cl)c2)c1 [I-531]
10 to 100,–,C=CC(=O)NCC1CCCN(c2ccnc(N[C@@H]3CCCN(c4cccc(F)c4)C3)c2)C1 (stereo partly shown) [I-634]
> 200,–,CS(=O)(=O)CN(c1cc(N2CCOCC2)ccn1)[C@@H]1CCCN(c2cccc(F)c2)C1 [I-258]
–,> 200,CCCCN(c1nccc(N2CCOCC2)n1)[C@@H]1CCCN(c2cccc(F)c2)C1 [I-43]
> 200,–,Fc1cccc(N2CCC[C@@H](Nc3cc(N4CCOCC4)ccn3)C2F)c1 (stereo partly shown) [I-260]
10 to 100,–,N#Cc1ccccc1[C@H](CC(N)=O)NC(=O)c1cn[nH]c1-c1ccccc1F [I-342]
> 200,–,Oc1c(CN2CCCCC2)cccc1[C@@H]1CCCN(c2cccc(F)c2)C1 [I-730]
> 200,–,NC(=O)C[C@H](NC(=O)c1cn[nH]c1-c1ccccc1F)c1cccnc1 [I-131]
100 to 200,–,Fc1cccc(N2C[C@@H](F)C[C@@H](Nc3cc(N4CCOCC4)ccn3)C2)c1 [I-541]
> 200,–,CS(=O)(=O)Cc1ccc(F)c(-c2[nH]ncc2C(=O)N[C@H](CC(N)=O)c2cccc(Cl)c2)c1 [I-532]
10 to 100,–,NC(=O)C[C@H](NC(=O)c1cn[nH]c1-c1ccccc1F)c1ccccc1Br [I-581]
< 10,–,NC(=O)C[C@H](NC(=O)c1c[nH]nc1-c1c(F)cccc1F)c1cccc(Cl)c1 [I-150]
> 200,–,c1ccc2cc(N3CCC[C@@H](Nc4cc(N5CCOCC5)ncn4)C3)ccc2c1 [I-389]
< 10,–,Cc1ccc(Cl)cc1[C@H](CC(N)=O)NC(=O)c1cn[nH]c1-c1ccccc1F [I-583]

Kd (read-out: DCAF1-3 SPR (KD)) [µM],Kd (DCAF1-3 SPR (KD)) [µM],Compound
> 200,–,C[C@@H](C(N)=O)[C@H](NC(=O)c1c[nH]nc1-c1ccccc1F)c1cccc(Cl)c1 [I-211]
> 200,–,Fc1cccc(N2CCCC(C3(c4cc(N5CCOCC5)ccn4)CC3(F)F)C2)c1 (stereo not shown) [I-261]
10 to 100,–,O=C(c1cc(N2CCCCC2)ccn1)[C@H]1CCCN(c2cccc(F)c2)C1 [I-613]
10 to 100,–,NC(=O)C[C@H](NC(=O)c1cn[nH]c1-c1ccncc1)c1cccc(Cl)c1 [I-336]
> 200,–,O=C1[C@H](Nc2cc(N3CCOCC3)ccn2)CCCN1c1cccc(F)c1 [I-281]
< 10,–,Fc1cccc(N2CCC[C@@H](Nc3cc(N4CC5CC(C5)C4)ccn3)C2)c1 [I-576]
> 200,–,O=C(N[C@H](c1cccc(Cl)c1)[C@@H]1CCCNC1=O)c1c[nH]nc1-c1ccccc1F [I-195]
> 200,–,O=C1Cc2cc(N3CCC[C@@H](Nc4cc(N5CCOCC5)ccn4)C3)ncc2N1 [I-425]
< 10,–,Cc1c(F)c(Cl)cc(F)c1-c1[nH]ncc1C(=O)N[C@@H](CC(N)=O)c1cccc(Cl)c1 [I-1043]
10 to 100,–,NC(=O)C[C@@H](NC(=O)c1cn[nH]c1-c1ncccc1F)c1cccc(Cl)c1 [I-529]
< 10,–,NC(=O)C[C@H](NC(=O)c1cn[nH]c1C(=O)c1ccccc1)c1cccc(Cl)c1 [I-619]
> 200,–,Fc1cccc(N2CCC[C@@H](N(CCc3ccccc3)c3nccc(N4CCOCC4)n3)C2)c1 [I-323]
> 200,–,CN1CC=CC[C@@H]1CC(=O)N[C@@H](CC(N)=O)c1cccc(Cl)c1 [I-442]
> 200,–,NC(=O)C[C@H](NC(=O)c1cn[nH]c1-c1oncc1O)c1cccc(Cl)c1 [I-161]
10 to 100,–,NC(=O)C[C@H](NC(=O)c1cc[nH]c1-c1ccccc1F)c1cccc(Cl)c1 [I-89]
> 200,–,O=C1C(Nc2cc(N3CCOCC3)ccn2)CCCN1c1cccc(F)c1 (stereo not shown) [I-502]
> 200,–,Fc1cccc(N2CC(Nc3cc(N4CCOCC4)ccn3)C2)c1 [I-199]
10 to 100,–,OCCc1ccc(N2CCC[C@@H](Nc3cc(N4CCOCC4)ccn3)C2)nc1 [I-691]
10 to 100,–,C=CC(=O)NCCCCC1CCN(c2ccnc(N[C@@H]3CCCN(c4cccc(F)c4)C3)c2)CC1 [I-756]
< 10,–,Cc1cccc(F)c1-c1c(C(=O)N[C@@H](CC(N)=O)c2cccc(Cl)c2)c[nH]c1C(=O)c1cccc(N2CCCCC2)c1 [I-700]
> 200,–,O[C@@H]1CCCN(c2ccnc(N3CC[C@H]4[C@@H]3CCCN4c3cccc(F)c3)c2)C1 [I-799]
> 200,–,Oc1ccccc1N1CCC[C@@H](Nc2cc(N3CCOCC3)ncn2)C1 [I-16]

Kd (read-out: DCAF1-3 SPR (KD)) [µM],Kd (DCAF1-3 SPR (KD)) [µM],Compound
10 to 100,–,Fc1cccc(N2CCC[C@@H](Nc3cncc(N4CCOCC4)c3)C2)c1 [I-19]
> 200,–,Fc1cccc(N2CCC[C@@H](Nc3cc(N4CCCCC4)ncn3)C2)c1 [I-379]
10 to 100,–,c1cc(N2CCOCC2)cc(N[C@@H]2CCCN(c3ccc4c(N5CCNCC5)ccnc4c3)C2)n1 [I-858]
> 200,–,NC(=O)C[C@H](NC(=O)c1cn[nH]c1-c1ccccc1F)c1ccccc1O [I-339]
< 10,–,Fc1cccc(N2CCC[C@H]3[C@@H]2CCN3c2cc(N3CCCCCC3)ccn2)c1 [I-636]
> 200,–,C=CC(=O)N1CC[C@H]1C(=O)N1CCN(c2ccnc(N[C@@H]3CCCN(c4cccc(F)c4)C3)c2)CC1 [I-479]
> 200,–,CS(=O)(=O)Cc1ccc(F)c(-c2[nH]ncc2C(=O)N[C@@H](CC(N)=O)c2cccc(Cl)c2)c1 [I-246]
> 200,–,NC(=O)C[C@H](NC(=O)c1cn[nH]c1-c1ccccc1F)c1ccc(O)cc1 [I-130]
10 to 100,–,O=c1[nH]cc(C2CCOCC2)cc1N[C@@H]1CCCN(c2cccc(F)c2)C1 [I-646]
10 to 100,–,OCCC[C@H]1C[C@H]2[C@@H](CCCN2c2cccc(F)c2)N1c1cc(N2CCCCC2)ccn1 [I-834]
10 to 100,–,NC(=O)C[C@H](NC(=O)c1c[nH]nc1-c1ccccn1)c1cccc(Cl)c1 [I-335]
10 to 100,–,Cc1cccc(N2CCC[C@H]3[C@@H]2CCN3c2cc(N3CC4CC(C4)C3)ccn2)c1 [I-711]
10 to 100,–,COCCN1CCN(c2ccnc(N[C@@H]3CCCN(c4cccc(F)c4)C3)n2)CC1 [I-320]
10 to 100,–,NCC(=O)NCc1ccc(N2CCCCC2)cc1N[C@@H]1CCCN(c2cccc(F)c2)C1 [I-982]
10 to 100,–,COCCc1ccc(F)c(-c2[nH]ncc2C(=O)N[C@@H](CC(N)=O)c2cccc(Cl)c2)c1 [I-250]
> 200,–,Fc1ccccc1N1CCC[C@@H](Nc2cc(N3CCOCC3)ncn2)C1 [I-3]
10 to 100,–,CCC1CCCN(c2ccnc(N[C@@H]3CCCN(c4cccc(F)c4)C3)c2)C1 (stereo partly shown) [I-572]
> 200,–,Cc1cnc(N2CCOCC2)cc1N[C@@H]1CCCN(c2cccc(F)c2)C1 [I-404]
> 200,–,Fc1cccc(N2CC[C@@H]3CCCc4ncc(N5CCOCC5)cc4N[C@H]3C2)c1 [I-245]
< 10,–,O=c1[nH]cc(N2CCOCC2)cc1N[C@@H]1CCCN(c2cccc(F)c2)C1 [I-533]
< 10,–,Cc1cccc(F)c1-c1c(C(=O)N[C@@H](CC(N)=O)c2cccc(Cl)c2)c[nH]c1C#N [I-637]
> 200,–,Cc1cccc([C@H](CC(N)=O)NC(=O)c2cn[nH]c2-c2ccccc2F)n1 [I-143]

Kd (read-out: DCAF1-3 SPR (KD)) [µM],Kd (DCAF1-3 SPR (KD)) [µM],Compound
< 10,–,NS(=O)(=O)CCc1cccc(N2CCC[C@H]3[C@@H]2CCN3c2cc(N3CCCCC3)ccn2)c1 [I-964]
< 10,–,Fc1cccc(N2CCC[C@@H](Nc3cc(N4CC5CCC(CC5)C4)ccn3)C2)c1 [I-618]
10 to 100,–,O=c1[nH]cc(C2=CCOCC2)cc1N[C@@H]1CCCN(c2cccc(F)c2)C1 [I-647]
> 200,–,Fc1cccc(N2CCC[C@H](N3CCc4c(N5CC6CC(C6)C5)ccnc43)C2)c1 [I-840]
> 200,–,COCCOCCC1CN(c2cc(N3CCOCC3)ccn2)[C@@H]2CCCN(c3cccc(F)c3)[C@H]12 (stereo partly shown) [I-828]
< 10,–,Cc1cccc(F)c1-c1c[nH]cc1C(=O)N[C@@H](CC(N)=O)c1cccc(Cl)c1 [I-592]
> 200,–,NC(=O)C[C@H](NC(=O)c1c[nH]nc1-c1cccc2cc[nH]c12)c1cccc(Cl)c1 [I-235]
10 to 100,–,CC(C)c1cccc(-c2[nH]ncc2C(=O)N[C@@H](CC(N)=O)c2cccc(Cl)c2)c1 [I-525]
> 200,–,C=CC(=O)Nc1ccc(-c2[nH]ncc2C(=O)N[C@H](CC(N)=O)c2cccc(Cl)c2)cc1 [I-536]
10 to 100,–,COC(=O)Cc1ccnc(N2CCC[C@@H](Nc3cc(N4CCOCC4)ccn3)C2)c1 [I-429]
10 to 100,–,COCCN1CCN(c2ccnc(N[C@@H]3CCCN(c4cccc(F)c4)C3)c2)CC1 [I-61]
> 200,–,NC(=O)C[C@@]1(c2cccc(Cl)c2)CN=C(c2c[nH]nc2-c2ccccc2F)N1 [I-191]
10 to 100,–,c1cc(C2CC2)cc(N2CCC[C@@H](Nc3cc(N4CCOCC4)ccn3)C2)c1 [I-526]
< 10,–,c1ccc([C@H]2CCC[C@H](Nc3cc(N4CCCCC4)ccn3)C2)cc1 [I-755]
10 to 100,–,O=c1cc(N2CCC[C@@H](Nc3cc(N4CCCCC4)ccn3)C2)cc[nH]1 [I-945]
> 200,–,NC(=O)[C@@H]1[C@H](Nc2cc(N3CCOCC3)ccn2)CCCN1c1cccc(F)c1 [I-278]
> 200,–,Cc1sc2c(c1C)C(c1ccc(Cl)cc1)=N[C@@H](CC(=O)NCCOCCOCCOCCOCCOCCn1ncc(C(=O)N[C@@H](CC(N)=O)c3cccc(Cl)c3)c1-c1ccccc1F)c1nnc(C)n1-2 [I-487]
< 10,–,Cc1c(F)ccc(F)c1-c1[nH]ncc1C(=O)N[C@@H](CC(=O)N1CCN(C(=O)OCc2ccccc2)CC1)c1cccc(Cl)c1 [I-884]
10 to 100,–,O[C@@H]1C[C@@H](Nc2cc(N3CCOCC3)ccn2)CN(c2cccc(F)c2)C1 [I-274]
